Laboratory results: PMC4309170, “The dipeptidyl peptidase IV inhibitors vildagliptin and K-579 inhibit a phospholipase C: a case of promiscuous scaffolds in proteins” (F1000Research, 2015)

Target: phosphoinositide-specific phospholipase C (PI-PLC) (Bacillus cereus, UniProt P14262)
Assay: PI-PLC-induced liposome (LUV) aggregation assay, turbidity at […] nm, dose-response
Assay type: biochemical

phosphoinositide-specific phospholipase C (PI-PLC), sequence (P14262 32-329 limits assumed): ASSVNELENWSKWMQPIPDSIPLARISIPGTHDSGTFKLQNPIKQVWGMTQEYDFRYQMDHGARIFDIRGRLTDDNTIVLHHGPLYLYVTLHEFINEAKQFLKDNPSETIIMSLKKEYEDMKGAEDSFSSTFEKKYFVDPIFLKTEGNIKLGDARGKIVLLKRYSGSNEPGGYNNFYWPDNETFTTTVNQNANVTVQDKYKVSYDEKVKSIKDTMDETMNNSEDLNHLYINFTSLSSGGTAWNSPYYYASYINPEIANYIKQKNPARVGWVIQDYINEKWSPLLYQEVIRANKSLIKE

With `N#C[C@@H]1CCCN1C(=O)CNC12CC3CC(CC(O)(C3)C1)C2` [LAF-237, 1-[[(3-hydroxy-1-adamantyl)amino]acetyl]-2-cyano-(S)-pyrrolidine] as the compound, how does the IC50 read?
Its IC50 is 100 µM.
